Patent publication US20050208139A1 (Ascend Therapeutics, Inc., priority 2004, published 2005)

Key:
[1] = Isomerization of 4-hydroxy tamoxifen in hydroalcoholic solutions at 25°, 30° and 40° C., Z/E isomers by HPLC (Example 1); format: physicochemical
Experimental: Hydroalcoholic solutions containing 4-hydroxy tamoxifen were prepared, based on the following gel formula: […]
In the hydroalcoholic solutions, phosphate buffer was substituted for Klucel. The composition of the buffer was as follows:
At each of the stated concentrations, separate solutions containing Z-4-hydroxy tamoxifen or a mixture of Z- and E-4-hydroxy tamoxifen were prepared.
Each solution was subdivided into three parts in 30 ml brown glass bottles, then placed in ovens regulated at 25°, 30°, and 40° C.
The relative amounts of Z- and E-4-hydroxy tamoxifen isomers were determined at the initiation of the study and at 2-week, 1-month, 2-month, 3-month, 4-month and 5-month time points.
Operating parameters for the HPLC were as follows:
The order of elution was as follows: • 4-OHT E: retention time about 13.3 min • 4-OHT Z: retention time about 15.0 min.
Percentages of each isomer were calculated using the following formulas: [formula] [formula] D. Data fitting:
The reversible isomerization reaction and the equilibrium reaches are lied by the following relationship: [formula] where • A0=initial concentration of the reagent • Aeq=concentration of the same reagent at equilibrium • A=the concentration of A at time t • kf=forward rate constant • kr=reverse rate constant • t=time measured in months
A plot of log [formula] as a function of time gives a straight line fit with a slope of [formula] and a y-intercept of 0. E. Results

[2] = Effects of pH on isomerization at 40° C. (Example 5); format: physicochemical
[3] = tested on: human breast tumors grown subcutaneously in mice; conditions: transdermally delivered; cited from earlier work
[4] = in vivo; cited from earlier work
[5] = Initial E/Z 37/63, Buffer pH 2.2, Final pH 4, Day
[6] = Initial E/Z 37/63, Buffer pH 2.2, Final pH 4, Day 8
[7] = Initial E/Z 37/63, Buffer pH 2.2, Final pH 4, Mo. 1
[8] = Initial E/Z 37/63, Buffer pH 2.2, Final pH 4, Mo. 2
[9] = Initial E/Z 37/63, Buffer pH 2.2, Final pH 4, Mo. 3
[10] = Initial E/Z 37/63, Buffer pH 4, Final pH 6, Day
[11] = Initial E/Z 37/63, Buffer pH 4, Final pH 6, Day 8
[12] = Initial E/Z 37/63, Buffer pH 4, Final pH 6, Mo. 1
[13] = Initial E/Z 37/63, Buffer pH 4, Final pH 6, Mo. 2
[14] = Initial E/Z 37/63, Buffer pH 4, Final pH 6, Mo. 3
[15] = Initial E/Z 37/63, Buffer pH 4, Final pH 6, Time 0
[16] = Initial E/Z 37/63, Buffer pH 6, Final pH 7, Day
[17] = Initial E/Z 37/63, Buffer pH 6, Final pH 7, Day 8
[18] = Initial E/Z 37/63, Buffer pH 6, Final pH 7, Mo. 1
[19] = Initial E/Z 37/63, Buffer pH 6, Final pH 7, Mo. 2
[20] = Initial E/Z 37/63, Buffer pH 6, Final pH 7, Mo. 3
[21] = Initial E/Z 37/63, Buffer pH 6, Final pH 7, Time 0
[22] = Initial E/Z 37/63, Buffer pH 8, Final pH 9, Day
[23] = Initial E/Z 37/63, Buffer pH 8, Final pH 9, Day 8
[24] = Initial E/Z 37/63, Buffer pH 8, Final pH 9, Mo. 1
[25] = Initial E/Z 37/63, Buffer pH 8, Final pH 9, Mo. 2
[26] = Initial E/Z 37/63, Buffer pH 8, Final pH 9, Mo. 3
[27] = Initial E/Z 37/63, Buffer pH 8, Final pH 9, Time 0
[28] = Initial E/Z 37/63, Buffer pH 10, Final pH 12, Day
[29] = Initial E/Z 37/63, Buffer pH 10, Final pH 12, Day 8
[30] = Initial E/Z 37/63, Buffer pH 10, Final pH 12, Mo. 1
[31] = Initial E/Z 37/63, Buffer pH 10, Final pH 12, Mo. 2
[32] = Initial E/Z 37/63, Buffer pH 10, Final pH 12, Mo. 3
[33] = Initial E/Z 37/63, Buffer pH 10, Final pH 12, Time 0
[34] = Initial E/Z 100/0, Buffer pH 2.2, Final pH 4, Day
[35] = Initial E/Z 100/0, Buffer pH 2.2, Final pH 4, Day 8
[36] = Initial E/Z 100/0, Buffer pH 2.2, Final pH 4, Mo. 1
[37] = Initial E/Z 100/0, Buffer pH 2.2, Final pH 4, Mo. 2
[38] = Initial E/Z 100/0, Buffer pH 2.2, Final pH 4, Mo. 3
[39] = Initial E/Z 100/0, Buffer pH 4, Final pH 6, Day
[40] = Initial E/Z 100/0, Buffer pH 4, Final pH 6, Day 8
[41] = Initial E/Z 100/0, Buffer pH 4, Final pH 6, Mo. 1
[42] = Initial E/Z 100/0, Buffer pH 4, Final pH 6, Mo. 2
[43] = Initial E/Z 100/0, Buffer pH 4, Final pH 6, Mo. 3
[44] = Initial E/Z 100/0, Buffer pH 4, Final pH 6, Time 0
[45] = Initial E/Z 100/0, Buffer pH 6, Final pH 7, Day
[46] = Initial E/Z 100/0, Buffer pH 6, Final pH 7, Day 8
[47] = Initial E/Z 100/0, Buffer pH 6, Final pH 7, Mo. 1
[48] = Initial E/Z 100/0, Buffer pH 6, Final pH 7, Mo. 2
[49] = Initial E/Z 100/0, Buffer pH 6, Final pH 7, Mo. 3
[50] = Initial E/Z 100/0, Buffer pH 6, Final pH 7, Time 0
[51] = Initial E/Z 100/0, Buffer pH 8, Final pH 9, Day
[52] = Initial E/Z 100/0, Buffer pH 8, Final pH 9, Day 8
[53] = Initial E/Z 100/0, Buffer pH 8, Final pH 9, Mo. 1
[54] = Initial E/Z 100/0, Buffer pH 8, Final pH 9, Mo. 2
[55] = Initial E/Z 100/0, Buffer pH 8, Final pH 9, Mo. 3
[56] = Initial E/Z 100/0, Buffer pH 8, Final pH 9, Time 0
[57] = Initial E/Z 100/0, Buffer pH 10, Final pH 12, Day
[58] = Initial E/Z 100/0, Buffer pH 10, Final pH 12, Day 8
[59] = Initial E/Z 100/0, Buffer pH 10, Final pH 12, Mo. 1
[60] = Initial E/Z 100/0, Buffer pH 10, Final pH 12, Mo. 2
[61] = Initial E/Z 100/0, Buffer pH 10, Final pH 12, Mo. 3
[62] = Initial E/Z 100/0, Buffer pH 10, Final pH 12, Time 0

CCC(=C(c1ccc(O)cc1)c1ccc(OCCN(C)C)cc1)c1ccccc1 [4-hydroxy tamoxifen, 1-[4-(2-N-dimethylaminoethoxy)phenyl]-1-(4-hydroxyphenyl)-2-phenylbut-1-ene]
magnitude of the rate constants for the reversible isomerism as nominal concentration varied from 0.02% to 0.10% [1]: increased linearly | effect of pH on the equilibration process [2]: Low and high pH speed the equilibration process | % E [2, 5]: 48.5% | % Z [2, 5]: 51.5% | % E [2, 6]: 52.5% | % Z [2, 6]: 47.5% | % E [2, 7]: 48.2% | % Z [2, 7]: 51.8% | % E [2, 8]: 48.0% | % Z [2, 8]: 52.0% | % E [2, 9]: 48.0% | % Z [2, 9]: 52.0% | % Z ([2]; Initial E/Z 37/63, Buffer pH 2.2, Final pH 4, Time 0): 37.1% | % E [2, 10]: 51.0% | % Z [2, 10]: 49.0% | % E [2, 11]: 56.8% | % Z [2, 11]: 43.2% | % E [2, 12]: 49.4% | % Z [2, 12]: 50.6% | % E [2, 13]: 49.0% | % Z [2, 13]: 51.0% | % E [2, 14]: 48.5% | % Z [2, 14]: 51.5% | % E [2, 15]: 62.9% | % Z [2, 15]: 37.1% | % E [2, 16]: 58.0% | % Z [2, 16]: 42.0% | % E [2, 17]: 61.1% | % Z [2, 17]: 38.9% | % E [2, 18]: 55.8% | % Z [2, 18]: 44.2% | % E [2, 19]: 52.0% | % Z [2, 19]: 48.0% | % E [2, 20]: 50.4% | % Z [2, 20]: 49.6% | % E [2, 21]: 62.5% | % Z [2, 21]: 37.5% | % E [2, 22]: 56.9% | % Z [2, 22]: 43.1% | % E [2, 23]: 60.6% | % Z [2, 23]: 39.4% | % E [2, 24]: 54.2% | % Z [2, 24]: 45.8% | % E [2, 25]: 50.8% | % Z [2, 25]: 49.2% | % E [2, 26]: 49.9% | % Z [2, 26]: 50.1% | % E [2, 27]: 62.7% | % Z [2, 27]: 37.3% | % E [2, 28]: 49.0% | % Z [2, 28]: 51.0% | % E [2, 29]: 48.5% | % Z [2, 29]: 51.5% | % E [2, 30]: 49.0% | % Z [2, 30]: 51.0% | % E [2, 31]: 48.8% | % Z [2, 31]: 51.2% | % E [2, 32]: 49.0% | % Z [2, 32]: 51.0% | % E [2, 33]: 63.4% | % Z [2, 33]: 36.6% | % E [2, 34]: 45.9% | % Z [2, 34]: 54.1% | % E [2, 35]: 29.0% | % Z [2, 35]: 71.0% | % E [2, 36]: 47.4% | % Z [2, 36]: 52.6% | % E [2, 37]: 48.0% | % Z [2, 37]: 52.0% | % E [2, 38]: 47.7% | % Z [2, 38]: 52.3% | % Z ([2]; Initial E/Z 100/0, Buffer pH 2.2, Final pH 4, Time 0): 100.0% | % E [2, 39]: 34.3% | % Z [2, 39]: 65.7% | % E [2, 40]: 12.5% | % Z [2, 40]: 87.5% | % E [2, 41]: 43.2% | % Z [2, 41]: 56.8% | % E [2, 42]: 48.1% | % Z [2, 42]: 51.9% | % E [2, 43]: 48.5% | % Z [2, 43]: 51.5% | % E [2, 44]: 0.0% | % Z [2, 44]: 100.0% | % E [2, 45]: 9.6% | % Z [2, 45]: 90.4% | % E [2, 46]: 2.9% | % Z [2, 46]: 97.1% | % E [2, 47]: 16.6% | % Z [2, 47]: 83.4% | % E [2, 48]: 31.3% | % Z [2, 48]: 68.6% | % E [2, 49]: 40.8% | % Z [2, 49]: 59.2% | % E [2, 50]: 0.0% | % Z [2, 50]: 100.0% | % E [2, 51]: 11.6% | % Z [2, 51]: 88.4% | % E [2, 52]: 3.4% | % Z [2, 52]: 96.6% | % E [2, 53]: 20.6% | % Z [2, 53]: 79.4% | % E [2, 54]: 36.4% | % Z [2, 54]: 63.6% | % E [2, 55]: 44.1% | % Z [2, 55]: 55.9% | % E [2, 56]: 0.0% | % Z [2, 56]: 100.0% | % E [2, 57]: 48.8% | % Z [2, 57]: 51.2% | % E [2, 58]: 48.3% | % Z [2, 58]: 51.7% | % E [2, 59]: 48.8% | % Z [2, 59]: 51.2% | % E [2, 60]: 48.8% | % Z [2, 60]: 51.2% | % E [2, 61]: 48.9% | % Z [2, 61]: 51.1% | % E [2, 62]: 0.0% | % Z [2, 62]: 100.0% | % E ([2]; Initial E/Z ratios of 37/63, Buffer pH 2.2, Final pH 4, Time 0): 62.9% | % E ([2]; Initial E/Z ratios of 100/0, Buffer pH 2.2, Final pH 4, Time 0): 0.0% | anti-tumor effect [3]: exhibits an anti-tumor effect | distribution after percutaneous administration [4]: can concentrate in local breast tumors, with very little systemic distribution
